Laboratory results taken from US11123340B2, “Small-molecule UT-A-selective urea transport inhibitors” (The Regents of the University of California, priority 2014, dated 2021).

Tests used:
rat UT-B = target: T1, rat UT-B (Rattus norvegicus, UniProt P97689); assay: UT-B inhibition, erythrocyte lysis assay; assay type: cell-based
T1 construct: endogenous in cells; host or cells: rat erythrocytes (whole rat blood)
T1 sequence (P97689 1-384): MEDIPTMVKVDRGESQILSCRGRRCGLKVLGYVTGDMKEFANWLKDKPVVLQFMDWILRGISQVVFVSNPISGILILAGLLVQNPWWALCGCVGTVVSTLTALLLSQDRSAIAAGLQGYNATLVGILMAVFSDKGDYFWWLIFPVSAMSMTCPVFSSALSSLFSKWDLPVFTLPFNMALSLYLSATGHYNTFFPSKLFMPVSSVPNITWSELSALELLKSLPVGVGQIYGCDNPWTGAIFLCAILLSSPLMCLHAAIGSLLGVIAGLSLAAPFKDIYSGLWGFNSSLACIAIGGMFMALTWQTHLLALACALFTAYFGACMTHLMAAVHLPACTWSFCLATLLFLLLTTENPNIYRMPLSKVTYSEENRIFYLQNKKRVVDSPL
Experimental: As described (see, e.g., Levin et al. (2007) FASEB J. 21, 551-563), whole rat blood was diluted to a hematocrit of ˜1.5% in PBS containing 1.25 M acetamide and 5 mM glucose. Erythrocyte suspensions (100 μL) were added to 96-well round-bottom microplates and test compounds (1 μL) were added. After 15 min incubation, 20 μL of the erythrocyte suspension was added rapidly to each well containing 180 μL of PBS. Following vigorous mixing, erythrocyte lysis was quantified by absorbance at 710 nm. Non-lysed controls (isosmolar buffer) and lysed controls (0.7 mM phloretin) were added in each plate as negative and positive controls, respectively. Percentage erythrocyte lysis was computed as: % lysis=100% (Aneg−Atest)/(Aneg−Apos), where A is absorbance at 710 nm.
Inhibitor selectivity for rat UT-A1 versus UT-B was investigated using an erythrocyte lysis assay of rat UT-B urea transport, which involved measurement of hypotonic lysis (by near-infrared absorbance) of acetamide-loaded erythrocytes following rapid dilution into acetamide-free buffer.

rats = assay: Diuretic studies in rats; assay type: in vivo, rat; conditions: for urine osmolality / urine volume: control, hydrated rats
Experimental: Compound effects on urine output, osmolality and urea concentration were investigated in two conditions. Rats were placed in metabolic cages with water and food available ad libitum and spontaneously voided urine was collected for 3 h. Rats were then injected intravenously with 20 mg/kg UTAinh-E02 or UTAinh-F11 in formulations listed above (or vehicle alone), and returned to the metabolic cages without access to water, but free access to food. Spontaneously voided urine was collected every 3 h for a 6-h period. In some experiments, rats were administered dDAVP (4 μg/kg, IP) just before compound (or vehicle) injection and 3 h later. […] Urine osmolality was measured in water-diluted urine samples by freezing-point osmometry (Micro-osmometer; Precision Systems, Natick, Mass.). Urea concentration was determined by a colorimetric enzymatic assay as described above.
Diuretic efficacy was tested in rats under two different conditions. Inhibitor effects on maximum urinary concentrating ability was studied in rats administered the V2-selective agonist dDAVP at 4 μg/kg every 3 hours. Inhibitors were administered intravenously at 20 mg/kg as done in the pharmacokinetics experiments above. […] Each inhibitor produced a marked increase in volume and reduction in osmolality in urine collected over 0-3 h.
In a separate set of studies UTAinh-E02 was tested in control, hydrated rats.

PIM-1 kinase = PIM-1 kinase (Homo sapiens, UniProt P11309); conditions: Ren et al. (2011); cited from earlier work
[1] = Inhibitor permeability across MDCK cell monolayers (LC/MS); assay type: in vitro ADME, canine; conditions: dog; MDCK monolayers on porous filters, 20 μM; read-out: transepithelial permeability coefficient
Experimental: UT-A1 expressing MDCK cells were grown on 12-mm diameter collagen-coated Transwell inserts (0.4 μm pore size; Costar, Costar, N.Y.) to form tight monolayers (resistance>500 Ωcm^2), as described (see, e.g., Levin et al. (2007) FASEB J. 21, 551-563). Urea flux in the basolateral-to-apical direction was measured in response to a 15 mM urea gradient in which PBS containing forskolin (10 μM), with or without UT-A1 inhibitor and 0.7 mM phloretin, was added to both the apical-facing (0.2 mL) and basal-facing (2 mL) surfaces. After 30 min the basal-facing solution was replaced by PBS containing test compound+15 mM urea. Apical fluid samples (5 μL) were collected at specified times for enzymatic assay of urea (QUANTICHROME Urea Assay Kit; BioAssay Systems, Hayward, Calif.). To measure inhibitor permeability across MDCK cell layers, compounds (20 μM) were added on the basal-facing surface and fluid samples (20 μL) from the apical-facing surface were collected at different time points and analyzed by LC/MS.
To further evaluate the potential site of inhibitor action, the kinetics of UT-A1 inhibition was measured by assay of UT-A1 inhibition at different times after compound addition. […] To assess inhibitor membrane permeability transport of UTAinh-E02 and UTAinh-F11 across MDCK monolayers grown on porous filters by LC/MS was measured. Transport of UTAinh-F11 was much faster than that of UTAinh-E02 (FIG. 3C, right lower panel), with computed transepithelial permeability coefficients of […] and 1.1×10^−5 cm/s, respectively. From surface-to-volume considerations, the equilibration times were computed of UTAinh-E02 and UTAinh-F11 to be 250 and 14 s, respectively, in MDCK cells, which are consistent with intracellular sites of action of both inhibitors.

Sequence of PIM-1 kinase (P11309 whole entry): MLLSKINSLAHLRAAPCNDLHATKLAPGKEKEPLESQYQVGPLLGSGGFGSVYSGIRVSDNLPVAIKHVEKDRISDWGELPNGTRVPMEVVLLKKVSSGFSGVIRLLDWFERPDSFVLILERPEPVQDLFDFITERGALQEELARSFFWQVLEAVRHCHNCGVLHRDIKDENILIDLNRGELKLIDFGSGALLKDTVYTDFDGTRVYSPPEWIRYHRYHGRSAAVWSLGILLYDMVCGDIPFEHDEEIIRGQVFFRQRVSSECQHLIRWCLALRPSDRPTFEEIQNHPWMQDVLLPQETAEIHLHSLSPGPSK

Compound | selectivity for UT-A1 versus UT-B (rat UT-B; rat UT-A1 versus rat UT-B) | urine osmolality (rats; 0-3 h) | urine volume (rats; 0-3 h) | urine osmolality (rats; 3-6 h collection) | urine volume (rats; 3-6 h collection) | ratio of urea vs. non-urea solutes in urine (rats; dDAVP rats, after inhibitor treatment) | PIM-1 kinase inhibitor potency (PIM-1 kinase) | IC50 (rat UT-B; rat erythrocytes) [µM] | Papp B→A at 20 μM [1] [×10⁻⁶ cm/s]
CC(=O)Nc1ccc(-c2csc(-c3c[nH]c4ccccc34)n2)cc1 [UTA1inh-E02, N-(4-(2-(1H-indol-3-yl)thiazol-4-yl)phenyl)acetamide] | high selectivity | reduced | significantly increased | returned to near baseline | returned to near baseline | increased | micromolar potency |  | 
COc1ccc(C)cc1S(=O)(=O)Nc1ccc(Cl)c(N2CCCS2(=O)=O)c1 [UTA1inh-F11, N-[4-Chloro-3-(1,1-dioxido-1,2-thiazolidin-2-yl)phenyl]-2-methoxy-5-methylbenzene-sulfonamide] |  |  |  |  |  |  |  | 10 | 11
